Data taken from article PMC8187479, “Sugar phosphate activation of the stress sensor eIF2B” (Nature Communications, 2021).
Changes are numbered by the printed parent chain.

Tests used:
eIF2Bα^E198K = target: T1, eIF2Bα^E198K (Homo sapiens, UniProt Q14232, E198K); assay: Isothermal titration calorimetry, eIF2Bα E198K; assay type: binding; conditions: ITC
T1 sequence (Q14232 1-305 E198K): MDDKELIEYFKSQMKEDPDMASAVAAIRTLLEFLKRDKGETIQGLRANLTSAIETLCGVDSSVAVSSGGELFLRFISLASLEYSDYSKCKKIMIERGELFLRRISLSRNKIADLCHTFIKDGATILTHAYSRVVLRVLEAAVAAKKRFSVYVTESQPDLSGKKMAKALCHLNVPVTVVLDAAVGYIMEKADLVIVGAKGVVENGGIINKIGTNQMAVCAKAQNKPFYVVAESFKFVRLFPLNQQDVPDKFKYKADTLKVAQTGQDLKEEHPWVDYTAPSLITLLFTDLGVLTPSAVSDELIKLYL
Protocol: (§1) Interactions between recombinant protein and sugar phosphates were conducted with a MicroCal PEAQ-ITC (Malvern Panalytical Inc.). Experiments were performed in 25 mM HEPES, 150 mM NaCl, pH 7.5 at 20 °C. […] The final titration curves were fitted using MicroCal ITC data analysis software, assuming a single binding site per monomer.

[1] = target: T2, recombinant eIF2B(βδγε) ± eIF2Bα2 (Homo sapiens, UniProt P49770+Q14232+Q9UI10); assay: Size-exclusion chromatography of recombinant eIF2B(βδγε) with or without eIF2Bα; assay type: biochemical; conditions: SEC, recombinant eIF2B(βδγε) + eIF2Bα2; 500 nM ISRIB, 200 μM F6P
T2 construct: made in house; host or cells: eIF2Bα: E. coli BL21(DE3)
Protocol: (§2) Purified proteins were thawed and centrifuged at 20,000 × g, 10 min, 4 °C to remove any potential precipitate. Concentrations of eIF2B(βδγε) and eIF2Bα were normalized to 2 μM and 2.4 μM, respectively. 0.2 mL of each mixture was injected onto a Superose 6 Increase 10/300 column connected to an AKTA Pure 25 FPLC system (GE Healthcare). The system was run at 0.5 mL/min for 1 h using 25 mM HEPES, 200 mM KCl, 2 mM MgCl2, 1 mM DTT, pH 7.5 as the mobile phase. For conditions with ISRIB, the protein samples and mobile phase were supplemented with 500 nM ISRIB. For conditions with F6P, the protein samples and mobile phase were supplemented with 200 μM F6P. UV280 measurements were obtained directly by the instrument.

[2] = target: T3, recombinant eIF2B(βδγε) ± eIF2Bα2 (Homo sapiens, UniProt P49770+Q9UI10); assay: as above; assay type: biochemical; conditions: SEC, recombinant eIF2B(βδγε); 500 nM ISRIB, 200 μM F6P
T3 construct: made in house; host or cells: eIF2Bα: E. coli BL21(DE3)
Protocol: as §2

[3] = target: T4, eIF2B decamer in WT HEK293T lysate (Homo sapiens, UniProt P49770+Q14232+Q9UI10); assay: Sucrose gradient centrifugation, eIF2B complex assembly, WT HEK293T lysate; assay type: biochemical; conditions: 400 mM KCl, 5–20% sucrose gradient
T4 construct: endogenous in cells; host or cells: HEK293T (wild type) lysate
Protocol: WT or eIF2Bα mutant HEK293T cells were harvested and lysed in 50 mM HEPES, 400 mM KCl, 1 mM DTT, 4 mM Mg(OAc)2, pH 7.5 + 0.5% Triton-X-100 + EDTA-free protease inhibitor cocktail (Roche) on ice for 30 min. Lysates were cleared by centrifugation at 48,000 × g, 4 °C for 30 min. 100 μL of each cleared lysate was loaded onto a 5–20% sucrose gradient prepared in a 13 × 51 mm ultracentrifuge tube using a Gradient Station (Biocomp) and centrifuged in a SW55 Ti rotor at 152,000 × g, 4 °C for 12 h. After centrifugation, 24 × 200 μL fractions were manually collected from the top to bottom of each gradient. Each fraction was subjected to methanol/chloroform precipitation and SDS-PAGE followed by Western Blot with the indicated antibodies. Blots were imaged on a ChemiDoc MP (Bio-Rad), and band intensities were quantified using the instrument’s Image Lab software. Each value was then divided by total intensity obtained across all fractions to determine percent enrichment of each subunit in each fraction.

eIF2Bα^V183F = eIF2Bα^V183F (Homo sapiens, UniProt Q14232, V183F); assay: Isothermal titration calorimetry, eIF2Bα V183F; assay type: binding; conditions: ITC
Protocol: as §1

eIF2Bα = target: T5, eIF2Bα (Homo sapiens, UniProt Q14232); assay: Isothermal titration calorimetry, wild-type eIF2Bα; assay type: binding
T5 construct: made in house; host or cells: E. coli BL21(DE3)
T5 sequence (Q14232 1-305): T1 sequence (Q14232 1-305 E198K) with K198E
Protocol: Interactions between recombinant protein and sugar phosphates were conducted with a MicroCal PEAQ-ITC (Malvern Panalytical Inc.). Experiments were performed in 25 mM HEPES, 150 mM NaCl, pH 7.5 at 20 °C. The sugar phosphate concentration in the syringe was 1 mM or 1.5 mM, and ~3.5 μL aliquots were injected into cells containing 300 μL eIF2Bα or eIF2B(βδγε) at a concentration of 20–30 μM. The final titration curves were fitted using MicroCal ITC data analysis software, assuming a single binding site per monomer.

Sequence of eIF2Bα^V183F (Q14232 whole entry V183F): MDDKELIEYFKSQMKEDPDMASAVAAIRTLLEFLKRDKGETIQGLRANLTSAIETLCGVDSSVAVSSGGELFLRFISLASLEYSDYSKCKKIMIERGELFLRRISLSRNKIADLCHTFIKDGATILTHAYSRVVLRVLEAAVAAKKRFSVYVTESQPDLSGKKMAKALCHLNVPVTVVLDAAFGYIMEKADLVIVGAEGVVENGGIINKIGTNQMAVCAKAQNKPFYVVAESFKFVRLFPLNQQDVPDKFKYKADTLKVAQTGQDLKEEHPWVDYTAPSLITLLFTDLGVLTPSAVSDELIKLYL
T3 sequence (P49770 whole entry): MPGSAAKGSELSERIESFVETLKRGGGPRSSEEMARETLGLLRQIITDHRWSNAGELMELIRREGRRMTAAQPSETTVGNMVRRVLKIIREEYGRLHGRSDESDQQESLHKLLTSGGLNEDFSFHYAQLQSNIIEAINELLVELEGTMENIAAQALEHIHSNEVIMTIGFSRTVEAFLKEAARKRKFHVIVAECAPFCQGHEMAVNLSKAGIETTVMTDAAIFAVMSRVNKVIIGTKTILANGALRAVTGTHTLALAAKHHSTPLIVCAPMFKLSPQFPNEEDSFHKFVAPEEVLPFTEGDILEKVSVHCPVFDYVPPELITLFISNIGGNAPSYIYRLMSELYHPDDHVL
T3 sequence (Q9UI10 2-523): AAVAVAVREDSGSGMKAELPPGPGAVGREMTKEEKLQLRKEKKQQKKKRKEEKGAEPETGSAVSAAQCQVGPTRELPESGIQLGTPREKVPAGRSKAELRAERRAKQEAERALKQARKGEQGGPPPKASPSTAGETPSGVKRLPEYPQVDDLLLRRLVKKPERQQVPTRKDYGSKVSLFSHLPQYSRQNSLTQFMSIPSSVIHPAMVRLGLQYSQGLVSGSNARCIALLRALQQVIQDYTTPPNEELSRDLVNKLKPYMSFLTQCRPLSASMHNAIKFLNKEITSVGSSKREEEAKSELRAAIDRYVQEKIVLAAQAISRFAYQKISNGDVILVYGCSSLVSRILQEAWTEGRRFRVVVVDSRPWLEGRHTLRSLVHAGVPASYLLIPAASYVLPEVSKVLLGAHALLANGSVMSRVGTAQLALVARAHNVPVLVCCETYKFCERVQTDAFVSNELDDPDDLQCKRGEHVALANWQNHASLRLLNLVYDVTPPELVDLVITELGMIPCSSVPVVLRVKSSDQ
T3 sequence (Q9NR50 whole entry partner): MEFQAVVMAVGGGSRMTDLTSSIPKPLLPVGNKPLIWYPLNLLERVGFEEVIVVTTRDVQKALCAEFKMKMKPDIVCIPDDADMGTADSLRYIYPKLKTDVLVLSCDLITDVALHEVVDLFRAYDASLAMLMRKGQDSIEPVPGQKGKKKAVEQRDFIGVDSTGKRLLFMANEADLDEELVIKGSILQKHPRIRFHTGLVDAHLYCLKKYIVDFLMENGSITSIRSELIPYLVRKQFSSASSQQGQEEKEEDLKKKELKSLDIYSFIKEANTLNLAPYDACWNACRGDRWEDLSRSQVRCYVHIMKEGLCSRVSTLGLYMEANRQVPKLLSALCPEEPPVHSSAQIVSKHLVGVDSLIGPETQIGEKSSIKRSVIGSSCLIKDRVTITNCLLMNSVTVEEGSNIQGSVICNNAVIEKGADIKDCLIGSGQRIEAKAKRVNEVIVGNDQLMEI
T3 sequence (Q13144 whole entry partner): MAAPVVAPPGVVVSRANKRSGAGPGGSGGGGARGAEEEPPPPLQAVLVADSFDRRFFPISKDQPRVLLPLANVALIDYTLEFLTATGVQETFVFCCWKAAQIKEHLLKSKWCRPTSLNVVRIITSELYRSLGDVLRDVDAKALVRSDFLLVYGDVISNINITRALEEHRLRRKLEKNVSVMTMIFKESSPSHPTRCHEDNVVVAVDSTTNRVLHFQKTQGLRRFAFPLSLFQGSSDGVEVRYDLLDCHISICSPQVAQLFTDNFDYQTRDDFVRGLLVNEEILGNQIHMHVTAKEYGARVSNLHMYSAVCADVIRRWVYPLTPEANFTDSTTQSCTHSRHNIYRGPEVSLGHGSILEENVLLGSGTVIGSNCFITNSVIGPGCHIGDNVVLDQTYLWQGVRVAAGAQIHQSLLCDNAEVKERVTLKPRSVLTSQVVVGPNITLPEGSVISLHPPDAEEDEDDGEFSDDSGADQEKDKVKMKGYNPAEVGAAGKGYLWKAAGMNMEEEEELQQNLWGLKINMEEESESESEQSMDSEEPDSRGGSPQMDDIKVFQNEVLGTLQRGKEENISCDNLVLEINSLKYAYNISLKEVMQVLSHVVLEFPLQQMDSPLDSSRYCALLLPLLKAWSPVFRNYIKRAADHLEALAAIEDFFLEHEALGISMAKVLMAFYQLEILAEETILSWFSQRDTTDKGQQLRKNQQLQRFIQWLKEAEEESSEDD
T2 sequence (Q14232 whole entry): as the sequence (Q14232 whole entry V183F) above, with F183V counted along it
T2 sequence (P49770 whole entry): as the sequence (P49770 whole entry) above
T2 sequence (Q9UI10 2-523): as the sequence (Q9UI10 2-523) above
T2 sequence (Q9NR50 whole entry partner): as the sequence (Q9NR50 whole entry partner) above
T2 sequence (Q13144 whole entry partner): as the sequence (Q13144 whole entry partner) above
T4 sequence (Q14232 whole entry): as the sequence (Q14232 whole entry V183F) above, with F183V counted along it
T4 sequence (P49770 whole entry): as the sequence (P49770 whole entry) above
T4 sequence (Q9UI10 whole entry): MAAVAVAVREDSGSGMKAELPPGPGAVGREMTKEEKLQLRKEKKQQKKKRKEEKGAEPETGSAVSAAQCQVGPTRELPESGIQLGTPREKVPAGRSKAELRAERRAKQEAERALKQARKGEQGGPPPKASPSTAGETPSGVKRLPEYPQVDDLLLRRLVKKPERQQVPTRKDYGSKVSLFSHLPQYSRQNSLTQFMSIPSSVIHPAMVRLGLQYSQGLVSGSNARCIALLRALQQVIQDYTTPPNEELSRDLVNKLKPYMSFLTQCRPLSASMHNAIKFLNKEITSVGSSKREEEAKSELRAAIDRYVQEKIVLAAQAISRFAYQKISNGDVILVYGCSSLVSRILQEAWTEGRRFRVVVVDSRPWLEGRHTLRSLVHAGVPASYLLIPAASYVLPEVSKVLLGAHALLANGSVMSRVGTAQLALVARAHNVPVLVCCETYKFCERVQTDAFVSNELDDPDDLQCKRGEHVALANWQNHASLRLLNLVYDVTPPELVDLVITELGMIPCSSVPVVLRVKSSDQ
T4 sequence (Q9NR50 whole entry partner): as the sequence (Q9NR50 whole entry partner) above
T4 sequence (Q13144 whole entry partner): as the sequence (Q13144 whole entry partner) above

O=C(CO)[C@@H](O)[C@H](O)[C@H](O)COP(=O)(O)O [F6P, fructose-6-phosphate]
Kd (eIF2Bα^E198K; eIF2Bα E198K): 99 ± 12 µM | reduction of affinity of eIF2Bα E198K (eIF2Bα^E198K; compared with wild-type eIF2Bα): 11 fold | complex formation in the presence of eIF2Bα [1]: enhances eIF2B complex stability | complex formation in the absence of eIF2Bα [2]: ineffective at promoting complex formation | eIF2B decamer formation (migration of eIF2Bα and eIF2Bδ) [3]: induced stabilization of the eIF2B decamer comparable to ISRIB | Kd (eIF2Bα^V183F): 6.3 ± 0.7 µM | Kd (eIF2Bα; ITC, wild-type eIF2Bα): 9.4 ± 2.3 µM | ITC binding isotherm, heat per mole of injectant (eIF2Bα; molar ratio 0.037369): -7.609 kcal/mol | ITC binding isotherm, heat per mole of injectant (eIF2Bα; molar ratio 0.225339): -7.342 kcal/mol | ITC binding isotherm, heat per mole of injectant (eIF2Bα; molar ratio 0.415168): -6.77 kcal/mol | ITC binding isotherm, heat per mole of injectant (eIF2Bα; molar ratio 0.606855): -6.002 kcal/mol | ITC binding isotherm, heat per mole of injectant (eIF2Bα; molar ratio 0.8004): -5.049 kcal/mol | ITC binding isotherm, heat per mole of injectant (eIF2Bα; molar ratio 0.995804): -4.011 kcal/mol | ITC binding isotherm, heat per mole of injectant (eIF2Bα; molar ratio 1.19307): -3.038 kcal/mol | ITC binding isotherm, heat per mole of injectant (eIF2Bα; molar ratio 1.39219): -2.241 kcal/mol | ITC binding isotherm, heat per mole of injectant (eIF2Bα; molar ratio 1.59317): -1.647 kcal/mol | ITC binding isotherm, heat per mole of injectant (eIF2Bα; molar ratio 1.796): -1.223 kcal/mol | ITC binding isotherm, heat per mole of injectant (eIF2Bα; molar ratio 2.0007): -0.9255 kcal/mol | ITC binding isotherm, heat per mole of injectant (eIF2Bα; molar ratio 2.20725): -0.7147 kcal/mol | ITC binding isotherm, heat per mole of injectant (eIF2Bα; molar ratio 2.41567): -0.5629 kcal/mol | ITC binding isotherm, heat per mole of injectant (eIF2Bα; molar ratio 2.62594): -0.4515 kcal/mol | ITC binding isotherm, heat per mole of injectant (eIF2Bα; molar ratio 2.83807): -0.3681 kcal/mol | ITC binding isotherm, heat per mole of injectant (eIF2Bα; molar ratio 3.05206): -0.3043 kcal/mol | ITC binding isotherm, heat per mole of injectant (eIF2Bα; molar ratio 3.2679): -0.2547 kcal/mol | ITC binding isotherm, heat per mole of injectant (eIF2Bα; molar ratio 3.48561): -0.2155 kcal/mol | ITC binding isotherm, heat per mole of injectant (eIF2Bα; molar ratio 3.70517): -0.184 kcal/mol
